Consider 1 molecule from patent US20240345105A1, “Compositions and Methods for Detecting Analytes in Oral Fluids” (George Mason Research Foundation, Inc., priority 2023, published 2024).

A short description of the series: LC/MRM-MS quantification of THC in oral fluid with heavy isotope standard curve. The series is classed as in vivo. To be noted: oral fluid of cannabis smoking volunteer, ratio to heavy THC isotope. The text has this:
Samples containing drugs of interest are processed and run on the Thermo Quantum Triple Quad MS (LC/MRM MS) in triplicate. Reference Stable heavy isotope analogs are spiked into known drug free OF to determine the sensitivity limit of detection. A standard curve is generated by mixing a known amount of reference heavy isotope analogs with varying amounts of the natural drug, plotting the ratio of the concentration of natural drug to that of the heavy standard isotope analog. The reference heavy isotope analogs are spiked into suspected positive OF sample. The ratio of […] is calculated and fitted to the standard curve to calculate the natural drugs concentration.
The present disclosure provides an exemplary oral fluid sample processing protocol. […]

Structures are written as SMILES.

Take `CCCCCc1cc(O)c2c(c1)OC(C)(C)[C@@H]1CCC(C)=C[C@@H]21` [THC, (6aR,10aR)-6,6,9-trimethyl-3-pentyl-6a, 7,8,10a-tetrahydro-6H-benzo[c]chromen-1-ol]: the “concentration of THC in saliva” value was 8.615 ng/mL.
